According to the supplement of paper PMC11061612:

How the values were obtained:
Assay in all cases: combination Emax (second highest fraction inhibited in the dose matrix, 72 h); higher = more inhibition; extreme values may be limits of the assay
[1] = system: B-CPAP (Thyroid Gland Carcinoma)
Outline: (§1)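 Bliss excess equals the observed combination effect minus the expected value EA + EB − EA·EB, where EA and EB are the effects of each agent alone. Combination Emax is the second-highest inhibition within the matrix. Inhibition was scaled from CellTiter-Glo 2.0 luminescence, with 0 set by vehicle wells and 1 by blank wells, after 72 hours of two-drug dosing of cells plated in 1536-well plates.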

[2] = system: ME-1 (Acute Myeloid Leukemia)
Outline: as §1

[3] = system: HuP-T4 (Pancreatic Carcinoma)
Outline: as §1

KELLY (Neuroblastoma) = system: KELLY (Neuroblastoma)
Outline: as §1

[4] = system: Calu-3 (Lung Adenocarcinoma)
Outline: as §1

[5] = system: CCRF-CEM (T-Lymphoblastic Leukemia)
Outline: as §1

[6] = system: UM-UC-3 (Bladder Carcinoma)
Outline: as §1

[7] = system: COLO-205 (Colorectal Carcinoma)
Outline: as §1

[8] = system: CaR-1 (Colorectal Carcinoma)
Outline: as §1

[9] = system: HCC1806 (Breast Carcinoma)
Outline: as §1

[10] = system: RC-K8 (B-Cell Non-Hodgkin's Lymphoma)
Outline: as §1

[11] = system: SK-ES-1 (Ewing's Sarcoma)
Outline: as §1

[12] = system: EC-GI-10 (Esophageal Squamous Cell Carcinoma)
Outline: as §1

[13] = system: HT-1376 (Bladder Carcinoma)
Outline: as §1

[14] = system: LS-180 (Colorectal Carcinoma)
Outline: as §1

[15] = system: DoTc2-4510 (Cervical Carcinoma)
Outline: as §1

[16] = system: Daoy (Other Solid Carcinomas)
Outline: as §1

[17] = system: HCC-78 (Lung Adenocarcinoma)
Outline: as §1

[18] = system: LNCaP-Clone-FGC (Prostate Carcinoma)
Outline: as §1

[19] = system: NCI-H2085 (Non-Small Cell Lung Carcinoma)
Outline: as §1

CN(CCO)CC[C@H](CSc1ccccc1)Nc1ccc(S(=O)(=O)NC(=O)c2ccc(N3CCC([C@@H](O)c4ccccc4-c4ccc(Cl)cc4)CC3)cc2)cc1S(=O)(=O)C(F)(F)F [AZD4320] + CN(C)CCCOc1ccc(-c2ccc3ncc4c(c3c2)n(C2CCOCC2)c(=O)n4C)cn1 [AZD0156] (first compound max 1 µM, 7x7, partner max 1 µM)
combination Emax [1]: 0.408 | combination Emax [2]: 1 | combination Emax [3]: 0.127 | combination Emax (KELLY (Neuroblastoma)): 0.597 | combination Emax [4]: 0.117 | combination Emax [5]: 1 | combination Emax [6]: 0.201 | combination Emax [7]: 0.77 | combination Emax [8]: 0.0707 | combination Emax [9]: 0.133 | combination Emax [10]: 0.407 | combination Emax [11]: 0.899 | combination Emax [12]: 0.193 | combination Emax [13]: 0.484 | combination Emax [14]: 0.159 | combination Emax [15]: 0.6 | combination Emax [16]: 0.156 | combination Emax [17]: 0.147 | combination Emax [18]: 0.335 | combination Emax [19]: 0.242

CN(CCO)CC[C@H](CSc1ccccc1)Nc1ccc(S(=O)(=O)NC(=O)c2ccc(N3CCC([C@@H](O)c4ccccc4-c4ccc(Cl)cc4)CC3)cc2)cc1S(=O)(=O)C(F)(F)F [AZD4320] + C[C@@H]1COCCN1C2=NC(=NC(=C2)C3(CC3)[S@](=N)(=O)C)C4=C5C=CNC5=NC=C4 [AZD6738] (first compound max 1 µM, 7x7, partner max 10 µM)
combination Emax [1]: 0.804 | combination Emax [2]: 1 | combination Emax [3]: 0.621 | combination Emax (KELLY (Neuroblastoma)): 0.982 | combination Emax [4]: 0.284 | combination Emax [5]: 1 | combination Emax [6]: 0.7 | combination Emax [7]: 0.623 | combination Emax [8]: 0.514 | combination Emax [9]: 0.972 | combination Emax [10]: 0.956 | combination Emax [11]: 1 | combination Emax [12]: 0.647 | combination Emax [13]: 0.718 | combination Emax [14]: 0.739 | combination Emax [15]: 0.912 | combination Emax [16]: 0.972 | combination Emax [17]: 0.637 | combination Emax [18]: 0.782 | combination Emax [19]: 0.502

CN(CCO)CC[C@H](CSc1ccccc1)Nc1ccc(S(=O)(=O)NC(=O)c2ccc(N3CCC([C@@H](O)c4ccccc4-c4ccc(Cl)cc4)CC3)cc2)cc1S(=O)(=O)C(F)(F)F [AZD4320] + C[C@@H](Nc1cc(F)cc(F)c1)c1cc(C(=O)N(C)C)cc2c(=O)cc(N3CCOCC3)oc12 [AZD8186] (first compound max 1 µM, 7x7, partner max 3 µM)
combination Emax [1]: 0.612 | combination Emax [2]: 1 | combination Emax [3]: 0.515 | combination Emax (KELLY (Neuroblastoma)): 0.7 | combination Emax [4]: 0.242 | combination Emax [5]: 1 | combination Emax [6]: 0.374 | combination Emax [7]: 0.776 | combination Emax [8]: 0.246 | combination Emax [9]: 0.696 | combination Emax [10]: 0.999 | combination Emax [11]: 0.987 | combination Emax [12]: 0.333 | combination Emax [13]: 0.551 | combination Emax [14]: 0.504 | combination Emax [15]: 0.911 | combination Emax [16]: 0.837 | combination Emax [17]: 0.528 | combination Emax [18]: 0.912 | combination Emax [19]: 0.584

CN(CCO)CC[C@H](CSc1ccccc1)Nc1ccc(S(=O)(=O)NC(=O)c2ccc(N3CCC([C@@H](O)c4ccccc4-c4ccc(Cl)cc4)CC3)cc2)cc1S(=O)(=O)C(F)(F)F [AZD4320] + Cc1cc2ncnn2cc1Nc1ncc2c(n1)n(C1CCOCC1)c(=O)n2C [AZD7648] (first compound max 1 µM, 7x7, partner max 10 µM)
combination Emax [1]: 0.408 | combination Emax [2]: 1 | combination Emax [3]: 0.156 | combination Emax (KELLY (Neuroblastoma)): 0.493 | combination Emax [4]: 0.182 | combination Emax [5]: 1 | combination Emax [6]: 0.121 | combination Emax [7]: 0.669 | combination Emax [8]: 0.125 | combination Emax [9]: 0.0765 | combination Emax [10]: 0.596 | combination Emax [11]: 0.911 | combination Emax [12]: 0.232 | combination Emax [13]: 0.786 | combination Emax [14]: 0.234 | combination Emax [15]: 0.499 | combination Emax [16]: 0.152 | combination Emax [17]: 0.175 | combination Emax [18]: 0.415 | combination Emax [19]: 0.177

CN(CCO)CC[C@H](CSc1ccccc1)Nc1ccc(S(=O)(=O)NC(=O)c2ccc(N3CCC([C@@H](O)c4ccccc4-c4ccc(Cl)cc4)CC3)cc2)cc1S(=O)(=O)C(F)(F)F [AZD4320] + Cn1cnc2c(F)c(Nc3ccc(Br)cc3Cl)c(C(=O)NOCCO)cc21 [Selumetinib] (first compound max 1 µM, 7x7, partner max 3 µM)
combination Emax [1]: 0.741 | combination Emax [2]: 1 | combination Emax [3]: 0.544 | combination Emax (KELLY (Neuroblastoma)): 0.737 | combination Emax [4]: 0.245 | combination Emax [5]: 0.993 | combination Emax [6]: 0.332 | combination Emax [7]: 1 | combination Emax [8]: 0.294 | combination Emax [9]: 0.795 | combination Emax [10]: 0.993 | combination Emax [11]: 0.983 | combination Emax [12]: 0.51 | combination Emax [13]: 0.687 | combination Emax [14]: 0.691 | combination Emax [15]: 0.906 | combination Emax [16]: 0.817 | combination Emax [17]: 0.305 | combination Emax [18]: 0.414 | combination Emax [19]: 0.367

COc1nnc2ccc(N3CCC(c4ccc(OCCN5CCN(C)C(=O)[C@H]5C)cc4)CC3)nn12 [AZD5153] + C=CCn1c(=O)c2cnc(Nc3ccc(N4CCN(C)CC4)cc3)nc2n1-c1cccc(C(C)(C)O)n1 [AZD1775] (first compound max 1 µM, partner max 1 µM)
combination Emax [1]: 0.734 | combination Emax [2]: 0.572 | combination Emax [3]: 0.549 | combination Emax (KELLY (Neuroblastoma)): 1 | combination Emax [4]: 0.632 | combination Emax [5]: 1 | combination Emax [6]: 0.393 | combination Emax [7]: 0.79 | combination Emax [8]: 0.451 | combination Emax [9]: 0.9 | combination Emax [10]: 0.787 | combination Emax [11]: 0.941 | combination Emax [12]: 0.865 | combination Emax [13]: 0.517 | combination Emax [14]: 0.623 | combination Emax [15]: 0.473 | combination Emax [16]: 0.908 | combination Emax [17]: 0.421 | combination Emax [18]: 0.758 | combination Emax [19]: 0.505
